Source: PMC12250302, “Synthesis, Antimicrobial Activities, and Model of Action of Novel Tetralone Derivatives Containing Aminoguanidinium Moiety” (International Journal of Molecular Sciences, 2025)
Values after ≈ are worked out from the molar mass of the structure shown.

Experiments:
MRSA-2 biofilm [1] = assay: Biofilm elimination assay (crystal violet); type: cell-based, Staphylococcus aureus; details: at the test concentration
Description: The ability of 2D to eliminate biofilm was evaluated. MRSA-2 (1 × 10^6 CFU/mL) was incubated in 96-well plates for 24 h until biofilm formation. The planktonic bacteria were discarded and washed thrice with PBS. […] According to the above method, the OD575 nm value was detected after the following steps: PBS washing, methanol fixation, crystal violet staining, and ethanol incubation.

MRSA-2 [2] = assay: Growth curve (OD600); type: cell-based, Staphylococcus aureus; details: 2D 0.5, 1, 2, 4, 8 µg/mL, vancomycin 0.5 and 1 μg/mL
Description: (§1) The growth inhibition and time-dependent killing abilities of 2D were evaluated against S. aureus (ATCC 29213) and MRSA-2. After culturing the strains in MH broth until the logarithmic growth phase, they were diluted with MH broth to 1 × 10^6 CFU/mL. […] OD600 values were measured at predetermined time intervals (0, 1, 2, 4, 6, 8, 10, 12, and 24 h).

S. aureus (ATCC 29213) = assay: Growth curve (OD600); type: cell-based, Staphylococcus aureus; details: 2D 0.5, 1, 2, 4, 8 µg/mL, vancomycin 0.5 and 1 μg/mL
Description: as §1

MRSA-2 [3] = assay: MRSA-induced mouse skin abscess model; type: in vivo
From the text: The MRSA-induced mouse skin abscess model was used to assess the in vivo antibacterial effects of 2D. Female KM mice, aged 4–6 weeks and weighing 20 ± 2 g, were purchased from the Laboratory Animal Center, Lanzhou Institute of Veterinary Medicine, Chinese Academy of Agricultural Sciences. The animal experiments were approved by the Ethics Committee of Research Involving Animals of the Lanzhou Institute of Husbandry and Pharmaceutical Science of CAAS (Approval number: 2025-03) and performed in accordance with the guidelines of the Ethics Committee for Animal Experiments. Prior to the formal experiment, all mice were acclimated for 5 days. The mice were kept in a pathogen-free environment with a 12 h light/12 h dark cycle, 50% ± 10% humidity, and a temperature of 24 °C ± 2 °C. […] The depilation method employed was as follows: depilatory paste was applied to the designated area for 10 min, after which it was thoroughly washed with 0.9% saline. The mice were semi-anesthetized by intraperitoneal injection with sodium Ulatan (TCI, 20%, 100 μL). […] After a 24 h interval, the administration was repeated, and 24 h after the last administration, the volume of abscess was measured and calculated. Then, the skin of the infected site and main organs were collected for tissue bacterial load and pathological detection.

MRSA-2 biofilm [4] = assay: Biofilm formation inhibition assay (crystal violet); type: cell-based, Staphylococcus aureus; details: Staphylococcus aureus, MRSA, 24 h, read-out: inhibition rate of biofilm formation
Description: The effect of 2D on the biofilm formation of MRSA was evaluated. MRSA-2 was cultured in MH broth for a period of 3–5 h, after which it was diluted to a density of 1 × 10^6 CFU/mL with MH broth. […] After the removal of the suspended bacteria, the well plates were washed thrice with PBS. Then, 150 μL of methanol was added and fixed for 30 min. Subsequent to air-drying, 150 μL of a 0.1% crystal violet aqueous solution was added. Following a 15 min staining period, the excess crystal violet was removed by rinsing with flowing water. Finally, 150 μL of anhydrous ethanol was added and the mixture was incubated for 20 min. The optical density at 575 nm was detected.

[5] = tested on: clinical S. aureus isolate LMY45; assay: MIC and MBC testing, broth microdilution; type: cell-based, Staphylococcus aureus; details: Staphylococcus aureus
Method in brief: (§2)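 Compounds in DMSO were serially two-fold diluted in MH broth and mixed with log-phase bacteria diluted to 1 × 10^6 CFU/mL in MH broth, then incubated 18 h at 37 °C. MBC values were also determined. Each concentration was tested in triplicate.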

[6] = tested on: clinical S. aureus isolate LMY48; assay: MIC and MBC testing, broth microdilution; type: cell-based, Staphylococcus aureus; details: Staphylococcus aureus
Method in brief: as §2

MRSA-2 [7] = assay: MIC and MBC testing, broth microdilution; type: cell-based, Staphylococcus aureus; details: Staphylococcus aureus, MRSA
Method in brief: (§3)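 Strains grown to logarithmic phase were diluted to 1 × 10^6 CFU/mL, combined with compound two-fold dilution series in MH broth, and incubated at 37 °C for 18 h. MIC and MBC were then recorded, with triplicate wells per concentration.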

MRSA-1 = assay: MIC and MBC testing, broth microdilution; type: cell-based, Staphylococcus aureus; details: Staphylococcus aureus, MRSA
Method in brief: as §2

[8] = tested on: clinical S. aureus isolate LMY46; assay: MIC and MBC testing, broth microdilution; type: cell-based, Staphylococcus aureus; details: Staphylococcus aureus
Method in brief: as §2

[9] = tested on: clinical S. aureus isolate LMY47; assay: MIC and MBC testing, broth microdilution; type: cell-based, Staphylococcus aureus; details: Staphylococcus aureus
Method in brief: as §3

S. aureus ATCC 29213 = assay: MIC and MBC testing, broth microdilution; type: cell-based, Staphylococcus aureus; details: Staphylococcus aureus
Method in brief: (§4)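 Broth microdilution in MH broth, 2-fold compound series from DMSO stocks; inoculum from log-phase culture diluted to 1 × 10^6 CFU/mL prior to addition; 37 °C, 18 h.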

E. faecium ATCC 35667 = assay: MIC and MBC testing, broth microdilution; type: cell-based, Enterococcus faecium; details: Enterococcus faecium
Method in brief: as §4

MRSA-2 [10] = assay: Fluorescence microscopy assay (DAPI/PI); type: cell-based, Staphylococcus aureus; details: vancomycin 4 µg/mL; 2D 4 and 8 μg/mL; 2 h
Description: MRSA-2 was cultivated to the logarithmic growth phase, then washed with PBS and resuspended in PBS until the concentration of bacterial suspension reached 1 × 10^8 CFU/mL. […] Thereafter, the samples were incubated with DAPI (10 μM) and PI (10 μM) in the dark for 15 min. The bacterial cells were then subjected to observation under a fluorescence microscope. DMSO served as the negative controls.

## CN[C@H](CC(C)C)C(=O)N[C@H]1C(=O)N[C@@H](CC(N)=O)C(=O)N[C@H]2C(=O)N[C@H]3C(=O)N[C@H](C(=O)N[C@H](C(=O)O)c4cc(O)cc(O)c4-c4cc3ccc4O)[C@H](O)c3ccc(c(Cl)c3)Oc3cc2cc(c3O[C@@H]2O[C@H](CO)[C@@H](O)[C@H](O)[C@H]2O[C@H]2C[C@](C)(N)[C@H](O)[C@H](C)O2)Oc2ccc(cc2Cl)[C@H]1O [Vancomycin, reference compound]
MRSA-2 biofilm [1]
  biofilm elimination: unable to completely eliminate the biofilm
MRSA-2 [2]
  growth inhibition (growth curve): failed to completely inhibit the growth
S. aureus (ATCC 29213)
  growth inhibition (growth curve): failed to completely inhibit the growth
MRSA-2 [3]; 5 mg/kg
  purulent lesions at the infection site (skin histopathology): significantly smaller
MRSA-2 [3]; 5 mg/kg, injected 2 h and 24 h postinfection, compared to model and solvent group
  volume of skin abscess: reduced volume
MRSA-2 [3]; 2D 5 and 10 mg/kg, vancomycin 5 mg/kg, compared with model and solvent group
  bacterial load of the skin at the infected site: significantly reduced
MRSA-2 [3]; infected mice after treatment, H&E
  histopathology of the major organs: no discernible lesions
MRSA-2 biofilm [4]
  inhibition at 0.25 µg/mL: ~18.5%
  inhibition at 0.5 µg/mL: ~37.8%
[5]
  MBC: 2 µg/mL (≈ 1.38 µM)
[5]; 18 h
  MIC: 0.5 µg/mL (≈ 0.345 µM)
[6]
  MBC: 2 µg/mL (≈ 1.38 µM)
[6]; 18 h
  MIC: 1 µg/mL (≈ 0.69 µM)
MRSA-2 [7]
  MBC: 2 µg/mL (≈ 1.38 µM)
MRSA-2 [7]; 18 h
  MIC: 1 µg/mL (≈ 0.69 µM)
MRSA-1
  MBC: 4 µg/mL (≈ 2.76 µM)
MRSA-1; 18 h
  MIC: 1 µg/mL (≈ 0.69 µM)
[8]
  MBC: 8 µg/mL (≈ 5.52 µM)
[8]; 18 h
  MIC: 1 µg/mL (≈ 0.69 µM)
[9]
  MBC: 2 µg/mL (≈ 1.38 µM)
[9]; 18 h
  MIC: 1 µg/mL (≈ 0.69 µM)
S. aureus ATCC 29213; ATCC29213
  MBC: 4 µg/mL (≈ 2.76 µM)
S. aureus ATCC 29213; ATCC29213, 18 h
  MIC: 1 µg/mL (≈ 0.69 µM)
E. faecium ATCC 35667; ATCC35667
  MBC: 16 µg/mL (≈ 11 µM)
E. faecium ATCC 35667; ATCC35667, 18 h
  MIC: 2 µg/mL (≈ 1.38 µM)
MRSA-2 [10]
  PI red fluorescence (damaged membranes): a very small amount of red fluorescence
